Experimental data taken from patent US9868746B2, “Substituted 5-aminothieno[2,3-C]pyridazine-6-carboxamide analogs as positive allosteric modulators of the muscarinic acetylcholine receptor M4” (Vanderbilt University, priority 2012, dated 2018).
Like-named read-outs stand apart in the source and are kept apart here.

Biological target: T1, mAChR M4 (Homo sapiens, UniProt P08173)
T1 construct: expressed in transfected cells; host or cells: CHO-K1 cells stably transfected with M4 cDNA and chimeric G-protein Gqi5
T1 sequence (P08173 1-479): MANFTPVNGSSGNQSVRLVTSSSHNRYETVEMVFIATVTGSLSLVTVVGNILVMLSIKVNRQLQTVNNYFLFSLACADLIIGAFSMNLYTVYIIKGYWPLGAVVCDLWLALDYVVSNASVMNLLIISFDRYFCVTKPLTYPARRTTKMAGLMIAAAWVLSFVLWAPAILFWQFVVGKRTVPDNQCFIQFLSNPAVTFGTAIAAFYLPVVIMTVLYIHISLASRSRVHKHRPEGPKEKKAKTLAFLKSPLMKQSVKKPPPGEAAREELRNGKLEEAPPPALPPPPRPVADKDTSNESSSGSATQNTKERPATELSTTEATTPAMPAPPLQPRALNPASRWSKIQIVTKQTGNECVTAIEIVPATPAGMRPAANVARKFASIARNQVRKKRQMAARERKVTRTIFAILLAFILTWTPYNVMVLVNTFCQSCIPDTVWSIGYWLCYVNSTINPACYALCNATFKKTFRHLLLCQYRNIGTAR
Test: mAChR M4 cell-based functional assay (calcium mobilization, potentiation of EC20 acetylcholine response)
Conditions: for Emax at 30 µM: % ACh maximum at 30 μM

[1] = mAChR M4 cell-based functional assay, >10,000 estimated for low potency compounds without plateau, read-out: EC50

Emax at 30 µM | EC50 [1] | SMILES | EC50 (EC50 (nM))
61% | 24 nM | COc1ccc(CNC(=O)c2sc3nnc(C)c(C)c3c2N)c(F)c1 [Example B475] | 
52% | 1700 nM | Cc1nnc2sc(C(=O)N3CCCC(c4ccccc4)C3)c(N)c2c1C (stereo not drawn) [Example B107] | 
73% | 2100 nM | Cc1nnc2sc(C(=O)NC3CCN(C(=O)N4CCOCC4)C3)c(N)c2c1C (stereo not drawn) [Example B208] | 
45% | 2100 nM | Cc1nnc2sc(C(=O)N3CC(Br)(c4ccccc4)C3)c(N)c2c1C [Example B191] | 
58% | 250 nM | Cc1nnc2sc(C(=O)N3CC4CN(c5ccccn5)CC4C3)c(N)c2c1C (stereo not drawn) [Example B287] | 
40% | > 10000 nM | Nc1c(C(=O)NC2CC2)sc2nnccc12 [Example B1] | 
19% | 4800 nM | Cc1nnc2sc(C(=O)N3CC4CN(C5CCCC5)CC4C3)c(N)c2c1C (stereo not drawn) [Example B286] | 
70% | 100 nM | COc1cccc(S(=O)(=O)N2CC(NC(=O)c3sc4nnc(C)c(C)c4c3N)C2)c1 [Example B137] | 
58% | 48 nM | COc1ncc(-c2ccc(CNC(=O)c3sc4nnc(C)c(C)c4c3N)cc2)cn1 [Example B485] | 
51% | 510 nM | Cc1nnc2sc(C(=O)N3CC(F)(c4ccc(S(C)(=O)=O)cc4)C3)c(N)c2c1C [Example B383] | 
76% | 49 nM | COc1cncc(-c2ccc(CNC(=O)c3sc4nnc(C)c(C)c4c3N)cc2)c1 [Example B488] | 
74% | 76 nM | Cc1nnc2sc(C(=O)NC3CCN(c4ccccc4F)C3)c(N)c2c1C (stereo not drawn) [Example B339] | 
62% | 44 nM | Cc1nnc2sc(C(=O)NC3CN(C(=O)Nc4ccccc4F)C3)c(N)c2c1C [Example B338] | 
66% | 28 nM | Cc1nnc2sc(C(=O)NCc3ccc(O)c(F)c3)c(N)c2c1C [Example B158] | 
70% | 1400 nM | Cc1nnc2sc(C(=O)N3CCC(NS(=O)(=O)c4cccc(F)c4)C3)c(N)c2c1C (stereo not drawn) [Example B211] | 
79% | 80 nM | Cc1nnc2sc(C(=O)NCc3ccc(CN4CCOCC4)cc3)c(N)c2c1C [Example B441] | 
84% | 430 nM | Cc1nnc2sc(C(=O)NC3CCN(C(=O)C4CCCCC4)C3)c(N)c2c1C (stereo not drawn) [Example B226] | 
33% | 920 nM | Cc1nnc2sc(C(=O)N3CC(O)(c4ccccc4)C3)c(N)c2c1C [Example B179] | 
48% | 1100 nM | Cc1nnc2sc(C(=O)N3CC4CN(c5ncccn5)CC4C3)c(N)c2c1C (stereo not drawn) [Example B434] | 
58% | > 10000 nM | CCCOC(=O)NC1CCN(C(=O)c2sc3nnc(C)c(C)c3c2N)C1 (stereo not drawn) [Example B210] | 

Emax at 30 µM | EC50 [1] | SMILES | EC50 (EC50 (nM))
50% | 390 nM | Cc1nnc2sc(C(=O)N3CC(F)(c4ccc(-c5cncnc5)cc4)C3)c(N)c2c1C [Example B326] | 
76% | 13 nM | Cc1nnc2sc(C(=O)NCc3ccc(OC(F)F)cc3)c(N)c2c1C [Example B168] | 
54% | 770 nM | COc1ccc(CNC(=O)c2sc3nnc(C)c(C)c3c2N)nc1 [Example B508] | 
67% | 87 nM | COc1ccc(CNC(=O)c2sc3nnc(C)c(C)c3c2N)cc1Br [Example B482] | 
44% | > 10000 nM | Cc1nnc2sc(C(=O)NCC3CCS(=O)(=O)CC3)c(N)c2c1C [Example B149] | 
53% | 2200 nM | Cc1nnc2sc(C(=O)N3CCC(c4ccncc4)C3)c(N)c2c1C (stereo not drawn) [Example B156] | 
77% | 610 nM | CCCOC(=O)N1CCC(NC(=O)c2sc3nnc(C)c(C)c3c2N)C1 (stereo not drawn) [Example B224] | 
58% | 1600 nM | Cc1nnc2sc(C(=O)N3CC4CN(C(=O)C5CC5)CC4C3)c(N)c2c1C (stereo not drawn) [Example B332] | 
41% | > 10000 nM | Cc1nnc2sc(C(=O)N3CC(NCCC(C)C)C3)c(N)c2c1C [Example B63] | 
56% | 160 nM | COc1cccc(SC2CN(C(=O)c3sc4nnc(C)c(C)c4c3N)C2)c1 [Example B418] | 
74% | 27 nM | Cc1nnc2sc(C(=O)NC3CN(C(=O)Nc4ccc(OC(F)F)cc4)C3)c(N)c2c1C [Example B363] | 
92% | 85 nM | Cc1nnc2sc(C(=O)NC3CN(S(=O)(=O)c4ccc5ncccc5c4)C3)c(N)c2c1C [Example B141] | 
73% | 1200 nM | Cc1nnc2sc(C(=O)NC3CCN(S(=O)(=O)c4ccc(OC(F)(F)F)cc4)C3)c(N)c2c1C (stereo not drawn) [Example B245] | 
64% | > 10000 nM | Cc1nnc2sc(C(=O)NC3CCCOC3)c(N)c2c1C (stereo not drawn) [Example B96] | 
62% | > 10000 nM | Cc1nnc2sc(C(=O)N3C[C@@H]4C[C@@H]3CN4C(=O)Oc3ccccc3)c(N)c2c1C [Example B270] | 
50% | > 10000 nM | Cc1nnc2sc(C(=O)NC3CCN(C(=O)OC(C)C)C3)c(N)c2c1C (stereo not drawn) [Example B222] | 
91% | 93 nM | Cc1nnc2sc(C(=O)NC3CN(C(=O)c4ccc(F)cc4)C3)c(N)c2c1C [Example B155] | 
66% | 19 nM | Cc1nnc2sc(C(=O)NCc3ccc(S(=O)(=O)CF)cc3)c(N)c2c1C [Example B132] | 
74% | 100 nM | Cc1nnc2sc(C(=O)NC3CCN(C(=O)Oc4ccccc4)C3)c(N)c2c1C (stereo not drawn) [Example B203] | 
74% | 23 nM | [2H]C([2H])(NC(=O)c1sc2nnc(C)c(C)c2c1N)c1ccc(S(=O)(=O)C(F)F)cc1 [Example B477] | 

Emax at 30 µM | EC50 [1] | SMILES | EC50 (EC50 (nM))
53% | > 10000 nM | Cc1nnc2sc(C(=O)N3CCC(NC(=O)c4ccccn4)C3)c(N)c2c1C (stereo not drawn) [Example B240] | 
34% | > 10000 nM | Cc1nnc2sc(C(=O)N3CCc4nn(C)cc4C3)c(N)c2c1C [Example B380] | 
71% | 200 nM | Cc1cncc(-c2ccc(CNC(=O)c3sc4nnc(C)c(C)c4c3N)cc2)c1 [Example B499] | 
72% | 210 nM | Cc1nnc2sc(C(=O)NCc3ccc(-c4ccc(F)nc4F)cc3)c(N)c2c1C [Example B495] | 
64% | 240 nM | CS(=O)(=O)c1ccc(CNC(=O)c2sc3nnc4c(c3c2N)CCCC4)cc1 [Example B58] | 
53% | 900 nM | Cc1nnc2sc(C(=O)N3CC4CN(C(=O)OC(C)(C)C)CC4C3)c(N)c2c1C (stereo not drawn) [Example B259] | 
53% | 1100 nM | Cc1nnc2sc(C(=O)N3CCC(NC(=O)c4ccc(F)c(F)c4)C3)c(N)c2c1C (stereo not drawn) [Example B217] | 
65% | 200 nM | Cc1nnc2sc(C(=O)N3CC(Cc4ccccc4)C3)c(N)c2c1C [Example B275] | 
71% | 69 nM | Cc1nnc2sc(C(=O)NCc3ccc(N(C)C)cc3)c(N)c2c1C [Example B449] | 
69% | 1200 nM | Cc1nnc2sc(C(=O)NCc3ccnc(C#N)c3)c(N)c2c1C [Example B467] | 
79% | 190 nM | Cc1nnc2sc(C(=O)NCc3ccc4c(cnn4C)c3)c(N)c2c1C [Example B251] | 
53% | 3500 nM | Cc1nnc2sc(C(=O)N[C@@H]3CCN(S(C)(=O)=O)C3)c(N)c2c1C [Example B77] | 
58% | 7.9 nM | Cc1cccc(OC(=O)N2CC(NC(=O)c3sc4nnc(C)c(C)c4c3N)C2)c1 [Example B365] | 
41% | > 10000 nM | Cc1nnc2sc(C(=O)NCCN(C)S(C)(=O)=O)c(N)c2c1C [Example B344] | 
64% | 48 nM | CCS(=O)(=O)c1ccc(CNC(=O)c2sc3nnc(C)c(C)c3c2N)cc1 [Example B49] | 
83% | > 10000 nM | Cc1nnc2sc(C(=O)NCc3ccncn3)c(N)c2c1C [Example B17] | 
61% | 44 nM | Cc1nnc2sc(C(=O)NCc3ccc(S(=O)(=O)C(C)(C)C(F)(F)F)cc3)c(N)c2c1C [Example B108] | 
66% | 55 nM | Cc1nnc2sc(C(=O)NCc3ccc(C4(S(C)(=O)=O)CC4)cc3)c(N)c2c1C [Example B105] | 
42% | 130 nM | Cc1nnc2sc(C(=O)N3CC(F)(c4ccc(-c5cccnc5)cc4)C3)c(N)c2c1C [Example B320] | 
76% | 42 nM | Cc1nnc2sc(C(=O)NCc3ccc4c(c3)CCO4)c(N)c2c1C [Example B27] | 

SMILES | Emax at 30 µM | EC50 [1] | EC50 (EC50 (nM))
Cc1nnc2sc(C(=O)NCc3ccc([S+](C)[O-])cc3)c(N)c2c1C (stereo not drawn) [Example B34] | 82% |  | 140 nM
Cc1nnc2sc(C(=O)NCc3ccc(S(F)(F)(F)(F)F)cc3)c(N)c2c1C [Example B297] | 76% |  | 30 nM
Cc1nnc2sc(C(=O)N3CCC(NC(=O)Oc4ccccc4)C3)c(N)c2c1C (stereo not drawn) [Example B205] | 71% | 570 nM | 
